Data on two compounds can be found in patent US20040029968A1, “Nateglinide-containing hydrophilic pharmaceutical preparation” (AJINOMOTO CO. INC, priority 2000, published 2004).

A short description of this data set: Contact angle of the preparation surface to water. The data set is classed as physicochemical. Particulars: flat, smooth tablets prepared from the crystals; water dropped onto the surface. The procedure: The term “contact angle to water” as employed herein means an angle wherein drops of water to be deposited to the surface of preparation compositions such as tablets and the like contact with said surface, which can be used as an indication of hydrophilic nature. For example, such contact angle is measured by forming 1 μL of droplet of pure water (MILLI-Q; MILLIPORE Co.) on the tip of needle (SNSO 52/026; made from stainless steel, inner diameter of 0.26 mm, outer diameter of 0.52 mm; HAMILTON Co.) and evaluating the contact angle at 60 m sec. after the droplet arrives onto the surface of tablet, using a contact angle measuring device (OCA-15 type; Data Physics Co.). When the surface of tablet has curvature, such contact angle is measured by correcting this curvature to straight line at the time when analysis is conducted. Usually, the contact angle is usually measured at room temperature.
As for preparations of which forms are not tablets, contact angles can be measured after molding powders, granules, semisolids and the like contained in such preparation. For example, in the case of capsules, the contact angle thereof can be determined by removing the contents of capsules and molding 200 mg of the contents into a tablet having diameter of 8 mm and thickness of 3.50 mm and having flat and smooth surface.

On to `CC(C)[C@H]1CC[C@H](C(=O)N[C@H](Cc2ccccc2)C(=O)O)CC1` [nateglinide H-type crystals, N-(trans-4-isopropylcyclohexanecarbonyl)-D-phenylalanine], for which the “contact angle of the surface of tablets to water” value is listed as 85 degree.

For the compound `CC(C)[C@H]1CC[C@H](C(=O)N[C@H](Cc2ccccc2)C(=O)O)CC1` [nateglinide B-type crystals, N-(trans-4-isopropylcyclohexanecarbonyl)-D-phenylalanine], the “contact angle of the surface of tablets to water” value is on record as 95 degree.
